Reference: US20070148184A1, “Survivin-derived peptides and use thereof” (priority 2003, published 2007)
Where two headings read alike, the source gives them in different places. No end group written: not given here.

Experiments:
[1] = biological target: HLA-A3 (Homo sapiens, UniProt P04439); assay: Assembly assay, HLA-A3; format: binding; conditions: for EC50: Table 4, HLA-A3, read-out: C50
Experimental: (§1) The binding affinity of synthetic peptides (Invitrogen, Carlsbad, Calif., USA) to HLA-A1, -A2, A3, or -A11 molecules metabolically labeled with [^35S]-methionine was measured in the assembly assay, as described previously (12). The assay is based on peptide-mediated stabilization of empty HLA molecules released upon cell lysis, from the TAP-deficient cell lines. Stably folded HLA-molecules were immune-precipitated using the HLA class I-specific, conformation-dependent mAb W6/32, and separated by isoelectric focusing (IEF) gel electrophoresis. MHC heavy chain bands were quantified using the ImageGauge Phosphorimager program (FUJI photo film Co., Carrollton, Tex., USA). The intensity of the band is proportional to the amount of peptide-bound class I MHC complex recovered during the assay. Subsequently, the extent of stabilization of the HLA-molecule is directly related to the binding affinity of the added peptide. The peptide concentration used to analyze the recovery of the HLA-molecules was 40, 4, 0.4, 0.04 μM for HLA-A1 and HLA-A11, and 100, 10, 1, 0.1, 0.01 μM for HLA-A2 and HLA-A3. The C50 value was subsequently calculated for each peptide as the peptide concentration sufficient for half maximal stabilization.

[2] = tested on: peptide epitope-specific interferon-γ releasing effector cells; assay: IFN-γ ELISPOT, Example 4 (PBL or TIL from cancer patients); format: cell-based, human
Experimental: To extend the sensitivity of the ELISPOT assay, PBL were stimulated once in vitro prior to analysis. At day 0, PBL or crushed lymph nodes were thawed and plated as 2×10^6 cells in 2 ml/well in 24-well plates (Nunc, Roskilde, Denmark) in x-vivo medium (Bio Whittaker, Walkersville, Md.), […] heat-inactivated human serum, and 2 mM of L-glutamine in the presence of 10 μM of peptide. Two days later 20 IU/ml recombinant interleukin-2 (IL-2) (Chiron, Ratingen, Germany) was added to the cultures. The cultured cells were tested for reactivity in the ELISPOT on day 10.
The ELISPOT assay was used to quantify peptide epitope-specific interferon-γ releasing effector cells as previously described (16). Briefly, nitrocellulose bottomed 96-well plates (MultiScreen MAIP N45, Millipore, Hedehusene, Denmark) were coated with anti-IFN-γ antibody (1-D1K, Mabtech, Nacka, Sweden). The wells were washed, blocked by X-vivo medium, and the cells were added in duplicates at different cell concentrations. The peptides were then added to each well and the plates were incubated overnight. The following day, media was discarded and the wells were washed prior to addition of biotinylated secondary antibody (7-B6-1-Biotin, Mabtech). The plates were incubated for 2 hours, washed, and avidin-alkaline phosphatase conjugate (Calbiochem, Life Technologies, Inc. San Diego, Calif., USA) was added to each well. The plates were incubated at room temperature for one hour, washed, and the enzyme substrate NBT/BCIP (DakoCytomation Norden A/S, Glostrup, Denmark) was added to each well and incubated at RT for 5-10 min. Upon the emergence of dark purple spots, the reaction was terminated by washing with tap-water. The spots were counted using the ImmunoSpot® Series 2.0 Analyzer (CTL Analyzers, LLC, Cleveland, US) and the peptide specific CTL frequency could be calculated from the numbers of spot-forming cells. All assays were performed in duplicates for each peptide antigen.

[3] = biological target: T1, HLA-A1 (Homo sapiens, UniProt P04439, A114D/A174V/A182V/D101N/D185E/E176A/E190D/L180R/Q94H/R68K/S129P/T187R/V100A/V91M/W191G); assay: Assembly assay, HLA-A1; format: binding; conditions: for EC50: Table 4, HLA-A1, read-out: C50
T1 construct: empty HLA molecules released upon cell lysis, from the TAP-deficient cell lines; endogenous in cells; host or cells: BM36.1 (TAP-defective cell line expressing HLA-A*0101 and HLA-B*3501)
Experimental: as §1

[4] = biological target: HLA-A11 (Homo sapiens, UniProt P04439, A114D/D185E/E176A/F33Y/L180Q/S129P/T187R); assay: Assembly assay, HLA-A11; format: binding
Experimental: as §1

[5] = biological target: HLA-B7 (Homo sapiens, UniProt P01889); assay: Assembly assay, HLA-B7; format: binding
Experimental: as §1
Binding of survivin derived peptides to HLA-B7 The amino acid sequence of the survivin protein was screened for peptides of nine to ten amino acids, with anchor residues according to the peptide binding motif of HLA-B7. Five peptides were selected and analyzed for their ability to stabilize HLA-B7 in the assembly assay. C50 values were estimated for each peptide as the peptide concentration needed for half maximal stabilization of HLA-B7 (table 4).

[6] = HLA-A3, nine samples from melanoma patients (five PBL and four TIL)

Compound: CC[C@H](C)[C@H](NC(=O)[C@@H](N)CCCNC(=N)N)C(=O)N[C@@H](CO)C(=O)N[C@H](C(=O)N[C@@H](Cc1ccccc1)C(=O)N[C@@H](CCCCN)C(=O)N[C@@H](CC(N)=O)C(=O)N[C@@H](Cc1c[nH]c2ccccc12)C(=O)N1CCC[C@H]1C(=O)N[C@@H](CCCCN)C(=O)O)[C@@H](C)O [Sur18K10]
- binding to HLA-A3, in words [1]: high affinity
- EC50 [1]: 20 nM
- ELISPOT response [2, 6]: CTL reactivity was detected
- responding patients ([2]; HLA-A3, twenty-seven melanoma patients analyzed): six

Compound: CC[C@H](C)[C@H](NC(=O)[C@H](Cc1ccccc1)NC(=O)CNC(=O)[C@H](C)NC(=O)[C@H](CCC(=O)O)NC(=O)[C@H](C)NC(=O)[C@@H](N)CCSC)C(=O)N[C@@H](Cc1c[nH]cn1)C(=O)N[C@@H](Cc1ccc(O)cc1)C(=O)O [Sur38Y9]
- EC50 [3]: 800 nM

Compound: CC(C)C[C@H](NC(=O)[C@H](CC(=O)O)NC(=O)[C@@H]1CCCN1C(=O)[C@H](CCC(=O)O)NC(=O)[C@H](CC(N)=O)NC(=O)[C@H](CCC(=O)O)NC(=O)[C@@H](NC(=O)[C@@H]1CCCN1)[C@@H](C)O)C(=O)N[C@@H](C)C(=O)N[C@@H](Cc1ccc(O)cc1)C(=O)O [Sur47Y10]
- EC50 [3]: 400 nM

Compound: CC(C)C[C@H](NC(=O)[C@@H](N)CC(C)C)C(=O)N[C@@H](CCC(N)=O)C(=O)N[C@@H](CS)C(=O)N[C@@H](Cc1ccccc1)C(=O)N[C@@H](Cc1ccccc1)C(=O)N[C@@H](CS)C(=O)N[C@@H](Cc1ccccc1)C(=O)N[C@@H](CCCCN)C(=O)O [Sur54L2]
- binding to HLA-A3, in words [1]: high affinity
- ELISPOT response [2, 6]: No responses were detected

Compound: CC(C)C[C@H](NC(=O)[C@H](CCC(=O)O)NC(=O)[C@H](CCC(=O)O)NC(=O)[C@H](Cc1ccccc1)NC(=O)[C@@H](N)CCC(N)=O)C(=O)N[C@H](C(=O)N[C@@H](CC(C)C)C(=O)NCC(=O)N[C@@H](CCC(=O)O)C(=O)N[C@@H](Cc1ccccc1)C(=O)O)[C@@H](C)O [Sur92-101]
- binding to HLA-A1, in words [3]: bound with almost similar high affinity as a known positive control epitope
- EC50 [3]: 2000 nM
- ELISPOT response ([2]; HLA-A1, Mel.A1-2): showed responses
- ELISPOT response ([2]; HLA-A1, Mel.A1-3, PBL): T-cell response

Compound: CC(C)C[C@H](NC(=O)[C@H](CCC(=O)O)NC(=O)[C@H](CCC(=O)O)NC(=O)[C@H](CO)NC(=O)[C@@H](N)CCC(N)=O)C(=O)N[C@H](C(=O)N[C@@H](CC(C)C)C(=O)NCC(=O)N[C@@H](CCC(=O)O)C(=O)N[C@@H](Cc1ccccc1)C(=O)O)[C@@H](C)O [Sur92S2]
- EC50 [3]: 100000 nM

Compound: CC(C)C[C@H](NC(=O)[C@H](CCC(=O)O)NC(=O)[C@H](CCC(=O)O)NC(=O)[C@@H](NC(=O)[C@@H](N)CCC(N)=O)[C@@H](C)O)C(=O)N[C@H](C(=O)N[C@@H](CC(C)C)C(=O)NCC(=O)N[C@@H](CCC(=O)O)C(=O)N[C@@H](Cc1ccccc1)C(=O)O)[C@@H](C)O [Sur92T2]
- EC50 [3]: 2000 nM

Compound: CC(C)C[C@H](NC(=O)[C@H](CCC(=O)O)NC(=O)[C@H](CCC(=O)O)NC(=O)[C@@H](N)Cc1ccccc1)C(=O)N[C@H](C(=O)N[C@@H](CC(C)C)C(=O)NCC(=O)N[C@@H](CCC(=O)O)C(=O)N[C@@H](Cc1ccccc1)C(=O)O)[C@@H](C)O [Sur93-101]
- binding to HLA-A1, in words [3]: low binding affinity
- EC50 [3]: > 100000 nM
- ELISPOT response ([2]; HLA-A1, ten melanoma patients, data not shown): no peptide-specific responses were detected

Compound: CC(C)C[C@H](NC(=O)[C@H](CCC(=O)O)NC(=O)[C@H](CO)NC(=O)[C@@H](N)Cc1ccccc1)C(=O)N[C@H](C(=O)N[C@@H](CC(C)C)C(=O)NCC(=O)N[C@@H](CCC(=O)O)C(=O)N[C@@H](Cc1ccccc1)C(=O)O)[C@@H](C)O [Sur93S2]
- EC50 [3]: 30000 nM

Compound: CC(C)C[C@H](NC(=O)[C@H](CCC(=O)O)NC(=O)[C@@H](NC(=O)[C@@H](N)Cc1ccccc1)[C@@H](C)O)C(=O)N[C@H](C(=O)N[C@@H](CC(C)C)C(=O)NCC(=O)N[C@@H](CCC(=O)O)C(=O)N[C@@H](Cc1ccccc1)C(=O)O)[C@@H](C)O [Sur93T2]
- binding to HLA-A1, in words [3]: bound with high affinity
- EC50 [3]: 1000 nM
- ELISPOT response ([2]; HLA-A1, Mel.A1-2): showed responses
- ELISPOT response ([2]; HLA-A1, Mel.A1-3, PBL): T-cell response
- ELISPOT response ([2]; HLA-A1, Mel.A1-4/PBL): responses were observed

Compound: CC(C)C[C@H](NC(=O)[C@@H](N)CC(=O)O)C(=O)N[C@@H](C)C(=O)N[C@@H](CCC(N)=O)C(=O)N[C@@H](CS)C(=O)N[C@@H](Cc1ccccc1)C(=O)N[C@@H](Cc1ccccc1)C(=O)N[C@@H](CS)C(=O)N[C@@H](Cc1ccccc1)C(=O)N[C@@H](CCCCN)C(=O)O [Sur 53-62]
- binding to HLA-A11, in words [4]: high affinity
- binding to HLA-A3, in words [1]: bound weakly
- ELISPOT response [2, 6]: no immune responses
- ELISPOT response ([2]; HLA-A11, Mel.A11-1, five blood samples over two years, data not shown): strong immune response
- ELISPOT response ([2]; HLA-A11, PBL from Mel.A11-1 and Mel.A11-2): detect responses
- ELISPOT response ([2]; HLA-A11, TIL from tumor infiltrated lymph node, Mel.A11-2): able to detect Sur53-62 specific T-cells

Compound: CC(C)C[C@H](N)C(=O)N[C@@H](C)C(=O)N[C@@H](CCC(N)=O)C(=O)N[C@@H](CS)C(=O)N[C@@H](Cc1ccccc1)C(=O)N[C@@H](Cc1ccccc1)C(=O)N[C@@H](CS)C(=O)N[C@@H](Cc1ccccc1)C(=O)N[C@@H](CCCCN)C(=O)O [Sur 54-62]
- binding to HLA-A11, in words [4]: high affinity

Compound: CC(C)C[C@H](NC(=O)[C@H](Cc1ccccc1)NC(=O)[C@H](CCC(=O)O)NC(=O)CNC(=O)[C@H](CC(C)C)NC(=O)[C@@H](NC(=O)[C@H](CC(C)C)NC(=O)[C@@H](N)CCC(=O)O)[C@@H](C)O)C(=O)N[C@@H](CCCCN)C(=O)O [Sur 95-103]
- binding to HLA-A3, in words [1]: bound weakly
- EC50 [1]: > 100000 nM
- ELISPOT response [2, 6]: no immune responses

Compound: CC[C@H](C)[C@H](NC(=O)[C@@H](N)CCCCN)C(=O)N[C@@H](C)C(=O)N[C@@H](CCCCN)C(=O)N[C@@H](CCC(=O)O)C(=O)N[C@H](C(=O)N[C@@H](CC(N)=O)C(=O)N[C@@H](CC(N)=O)C(=O)N[C@@H](CCCCN)C(=O)O)[C@@H](C)O [Sur 112-120]
- binding to HLA-A11, in words [4]: high affinity
- EC50 ([4]; Table 4, HLA-A11, read-out: C50): 1000 nM
- binding to HLA-A3, in words [1]: high affinity
- EC50 [1]: 2000 nM
- ELISPOT response [2, 6]: no immune responses

Compound: CPTENEPDL [Sur46-54]
- C50 (half maximal stabilization of HLA-B7) ([5]; Example 4): did not bind
- EC50 ([5]; Table 4, HLA-B7, read-out: C50): > 100 µM

Compound: ENEPDLAQCF [Sur49-58]
- binding to HLA-A1, in words [3]: non-binding

Compound: EPDLAQCFF [Sur51-59]
- C50 (half maximal stabilization of HLA-B7) ([5]; Example 4): did not bind
- EC50 ([5]; Table 4, HLA-B7, read-out: C50): > 100 µM

Compound: LPPAWQPFL [Sur6-14]
- EC50 ([5]; Example 4, read-out: C50 (half maximal stabilization of HLA-B7)): > 100 µM
- EC50 ([5]; Table 4, HLA-B7, read-out: C50): > 100 µM

Compound: QPRAPIRPI [C6, reference compound]
- EC50 [5]: 0.1 µM

Compound: RPPIFIRRL [C7, reference compound]
- EC50 [5]: 0.5 µM
